Biological target: T1, HPK1 kinase (aa1-346, Life Technologies) (Homo sapiens, UniProt Q92918)
T1 construct: HPK1 kinase (aa1-346, Life Technologies); purchased Life Technologies
T1 sequence (Q92918 1-346): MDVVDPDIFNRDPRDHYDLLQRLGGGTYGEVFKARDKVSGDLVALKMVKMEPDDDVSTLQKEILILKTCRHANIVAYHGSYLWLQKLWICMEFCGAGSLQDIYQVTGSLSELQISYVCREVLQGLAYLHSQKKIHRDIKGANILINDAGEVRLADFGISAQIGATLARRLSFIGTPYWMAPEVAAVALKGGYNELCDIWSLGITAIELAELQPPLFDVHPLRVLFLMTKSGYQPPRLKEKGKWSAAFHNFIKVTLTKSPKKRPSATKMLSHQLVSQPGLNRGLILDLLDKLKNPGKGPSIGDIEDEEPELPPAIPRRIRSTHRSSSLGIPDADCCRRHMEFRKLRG
Assay: HPK1 Kinase Activity Assay at 1 mM ATP (TR-FRET)
Assay type: biochemical
Conditions: HPK1 40 nM, read-out: Enzymatic activity IC50
Method: HPK1 Kinase Activity Assay at 1 mM ATP
Compounds disclosed herein were tested for inhibition of HPK1 kinase (aa1-346, Life Technologies) activity in assays based on the time-resolved fluorescence-resonance energy transfer (TR-FRET) methodology. The assays were carried out in 384-well low volume black plates in a reaction mixture containing HPK1 kinase (40 nM), 1 mM ATP, 0.5 μM STK1 substrate and 0-10 μM compound in buffer containing 50 mM HEPES, 0.01% BSA, 0.1 mM Orthovanadate, 10 mM MgCl2, 1 mM DTT, pH=7.0, 0.005% Tween-20. The kinase was incubated with the compounds disclosed herein or DMSO for 60 minutes at room temperature and the reaction was initiated by the addition of ATP and STK1 substrate. After reaction at room temperature for 120 minutes, an equal volume of stop/detection solution was added according to the manufacturer's instruction (CisBio). The stop/detection solution contained STK Antibody-Cryptate and XL665-conjugated streptavidin in Detection Buffer. The TR-FRET signals (ratio of fluorescence emission at 665 nm over emission at 620 nm with excitation at 337 nm wavelength) were recorded on a PHERAstar FS plate reader (BMG Labtech). Phosphorylation of STK1 substrate led to the binding of STK Antibody-Cryptate to the biotinylated STK1 substrate, which places fluorescent donor (Eu^3+ cryptate) in close proximity to the accepter (Streptavidin-XL665), thus resulting in a high degree of fluorescence resonance energy transfer. The inhibition of HPK1 in presence of increasing concentrations of compounds was calculated based on the ratio of fluorescence at 665 nm to that at 620 nm. The IC50 for each compound was derived from fitting the data to the four-parameter logistic equation by Graphpad Prism software.

| SMILES | IC50 [nM] |
| --- | --- |
| Cc1cc(-c2cnc3[nH]cc(-c4ccc(C(=O)N(C)CCC#N)cc4)c3n2)cc2c1CCN(C)C2 [Example 59, N-(2-cyanoethyl)-4-(2-(2,5-dimethyl-1,2,3,4-tetrahydroisoquinolin-7-yl)-5H-pyrrolo[2,3-b]pyrazin-7-yl)-N-methylbenzamide] | 16 |
| Cc1cc(-c2cnc3[nH]cc(-c4ccc(C(=O)N(C)C)cc4)c3n2)cc2c1CCN(CCN1CCC(C)(O)CC1)C2 [Example 37, 4-(2-(2-(2-(4-hydroxy-4-methylpiperidin-1-yl)ethyl)-5-methyl-1,2,3,4-tetrahydroisoquinolin-7-yl)-5H-pyrrolo[2,3-b]pyrazin-7-yl)-N, N-dimethylbenzamide] | 35 |
| Cc1cc(-c2c[nH]c3ncc(-c4cc(C)c5c(c4)CN(CCC(=O)N[C@@H]4CCOC4)CC5)nc23)ccc1C(=O)N(C)C [Example 34, (R)—N, N, 2-trimethyl-4-(2-(5-methyl-2-(3-oxo-3-(tetrahydrofuran-3-ylamino)propyl)-1,2,3,4-tetrahydroisoquinolin-7-yl)-5H-pyrrolo[2,3-b]pyrazin-7-yl)benzamide] | 42 |
| Cc1cc(-c2c[nH]c3ncc(-c4cc(C)c5c(c4)CN(CCC(=O)NCCCO)CC5)nc23)ccc1C(=O)N(C)C [Example 46, 4-(2-(2-(3-((3-hydroxypropyl)amino)-3-oxopropyl)-5-methyl-1,2,3,4-tetrahydroisoquinolin-7-yl)-5H-pyrrolo[2,3-b]pyrazin-7-yl)-N, N, 2-trimethylbenzamide] | 65 |
| Cc1cc(-c2c[nH]c3ncc(-c4cc(C)c5c(c4)CN(CCC(=O)NC[C@@H](C)O)CC5)nc23)ccc1C(=O)N(C)C [Example 29, (R)-4-(2-(2-(3-(2-hydroxypropylamino)-3-oxopropyl)-5-methyl-1,2,3,4-tetrahydroisoquinolin-7-yl)-5H-pyrrolo[2,3-b]pyrazin-7-yl)-N, N, 2-trimethylbenzamide] | 46 |
| Cc1cc(-c2c[nH]c3ncc(-c4cc(C)c5c(c4)CN(CCC(=O)NCC(C)(C)O)CC5)nc23)ccc1C(=O)N(C)C [Example 33, 4-(2-(2-(3-(2-hydroxy-2-methylpropylamino)-3-oxopropyl)-5-methyl-1,2,3,4-tetrahydroisoquinolin-7-yl)-5H-pyrrolo[2,3-b]pyrazin-7-yl)-N, N, 2-trimethylbenzamide] | 49 |
| Cc1cc(-c2cnc3[nH]cc(-c4ccc(C(=O)N(C)C)cc4)c3n2)cc2c1CCN(CCC(=O)N[C@H]1CC[C@H](O)CC1)C2 [Example 48, 4-(2-(2-(3-(((1r, 4r)-4-hydroxycyclohexyl)amino)-3-oxopropyl)-5-methyl-1,2,3,4-tetrahydroisoquinolin-7-yl)-5H-pyrrolo[2,3-b]pyrazin-7-yl)-N, N-dimethylbenzamide] | 65 |
| Cc1cc(-c2c[nH]c3ncc(-c4cc(C)c5c(c4)CN(C)CC5)nc23)ccc1C(=O)N(C)CC(C)(C)O [Example 39, 4-(2-(2,5-dimethyl-1,2,3,4-tetrahydroisoquinolin-7-yl)-5H-pyrrolo[2,3-b]pyrazin-7-yl)-N-(2-hydroxy-2-methylpropyl)-N, 2-dimethylbenzamide] | 186 |
| Cc1cc(-c2c[nH]c3ncc(-c4cc(C)c5c(c4)CN(CCC(=O)NCC4(O)CC4)CC5)nc23)ccc1C(=O)N(C)C [Example 32, 4-(2-(2-(3-((1-hydroxycyclopropyl)methylamino)-3-oxopropyl)-5-methyl-1,2,3,4-tetrahydroisoquinolin-7-yl)-5H-pyrrolo[2,3-b]pyrazin-7-yl)-N, N, 2-trimethylbenzamide] | 71 |
| Cc1cc(-c2c[nH]c3ncc(-c4cc(C)c5c(c4)CN(CCC(=O)NC4CC4)CC5)nc23)ccc1C(=O)N(C)C [Example 43, 4-(2-(2-(3-(cyclopropylamino)-3-oxopropyl)-5-methyl-1,2,3,4-tetrahydroisoquinolin-7-yl)-5H-pyrrolo[2,3-b]pyrazin-7-yl)-N, N, 2-trimethylbenzamide] | 37 |
